What was measured:
[1] = system: HCH mouse model (Fgfr3^N534K/+), mandible bone repair; assay: Non-stabilized mandibular fracture repair in HCH mice treated with BMN111 (microCT, repair grade); format: in vivo
Procedure: Mandibular bone repair was studied in the HCH mouse model (Fgfr3^N534K/+). The experiments were performed in adult animals at 6 weeks of age, and mice were euthanized at 4 key points: during bone repair (10, 14, 21 days post fracture), and at the end of the normal bone healing process i.e. at 28 days post fracture.
Vertical mandibular fractures were performed in the ascending ramus region in Fgfr3^N534K/+ and Fgfr3^+/+ mice. This is a non-stabilized mandibular fracture protocol allowing to analyze the endochondral bone repair process.
Four batches (n=100) of Fgfr3^N534K/+ and Fgfr3^+/+ mandible fractures corresponding to different key stages of repair were studied (day 10, day 14, day 21, day 28). Using collagen type II (proliferative cartilage), type X (hypertrophic cartilage) and type I (bone) immunolabelling, we observed that the endochondral process is disturbed, we noted a delayed cartilage resorption, a reduction in the size of hypertrophic chondrocytes area and a defect in bone formation within the repair callus in Fgfr3^N534K/+ compared to Fgfr3^+/+. […] We observed the presence of pseudarthrosis (fibrosis in the callus) in Fgfr3^N534K/+ mice whereas we observed 100% of bone in Fgfr3^+/+ callus. Considering the quality of the newly formed bone at day 28, we defined four grades of repair and classified the mice according to their repair grade (from 1 to 4). The defective repair is significant in Fgfr3^N534K/+ compared to Fgfr3^+/+ (FIG. 1C).
In order to analyze the bone microarchitecture, we performed microCT scans. We observed an alteration in the microarchitecture of callus formation from day10 to day 28 Fgfr3^N534K/+ compared to Fgfr3^+/+.
HCH mice (Fgfr3^N534K/+) were treated with BMN111 (subcutaneous injection at 0.8 mg/kg, 3 times per week) from day 0 (facture of the mandible) to day 14 or day 28. The bone repair analyses were evaluated by microCT scans at day 14 and day 28 post fracture. […] BV/TV is increased at day 14 (+29%; p<0.005) in treated HCH mice (n=8) compared to untreated HCH mice (n=9). BV/TV is increased at day 28 post fracture and (+24% p<0.005) in the HCH mice (n=9) compared to the untreated HCH mice (n=14) (FIGS. 1A and 1B).

[2] = system: mouse model (Fgfr3^Y367C/+); settings: human ACH cells and Fgfr3^Y367C/+ mouse model; Lorget et al 2012; cited from earlier work
[3] = day 28 grade repair, treated HCH mice
[4] = microCT, day 28 post fracture, treated (n=9) vs untreated (n=14) HCH mice, BMN111 s.c. 0.8 mg/kg 3 times per week, p<0.005

Vosoritide (PGQEHPNARKYKGANKKGLSKGCFGLKLDRIGSMSGLGC; chains of the INN, looked up) [BMN111, CNP analog, NPR2 agonist; formula C176H290N56O51S3, CAS Number 1480724-61-5]
Complete bone healing (grade 1), mice observed [1, 3]: 7/9 | Restoration of bone continuity, but presence of mild bone defects (grade 2), mice observed [1, 3]: 2/9 | BV/TV increase ([1]; microCT, day 14 post fracture, treated (n=8) vs untreated (n=9) HCH mice, BMN111 s.c. 0.8 mg/kg 3 times per week, p<0.005): +29% | callus volume ([1]; microCT, day 14 post fracture, treated vs untreated HCH mice, BMN111 s.c. 0.8 mg/kg 3 times per week): unchanged | BV/TV increase [1, 4]: +24% | decrease of the volume of the callus [1, 4]: −30.9% | pseudarthrosis in the callus ([1]; treated HCH mice, mandible fracture callus): without pseudarthrosis | effect on long bone growth and the skull [2]: beneficial effect
